Data published in patent US20120020923A1, “Method of treating viral diseases with combinations of TPO receptor agonist and anti-viral agents” (priority 2006, published 2012).

System: subjects with chronic hepatitis C virus (HCV) associated thrombocytopenia
Experiment: placebo controlled, double blind, dose-ranging study of Compound A before and with IFN and ribavirin
Assay type: in vivo, human
Details: for Median platelet count at Week 4: 4 weeks
Method: The safety, tolerability, efficacy and pharmacokinetics of repeat oral daily doses of 3′-{N′-[1-(3,4-Dimethylphenyl)-3-methyl-5-oxo-1,5-dihydropyrazol-4-ylidene]hydrazino}-2′-hydroxybiphenyl-3-carboxylic acid bis-(monoethanolamine);
(hereinafter Compound A) in subjects with chronic hepatitis C virus (HCV) associated thrombocytopenia, which precluded initiation of treatment with pegylated interferon (IFN) and ribavirin is assessed in this study.
HCV infected subjects with compensated cirrhosis and platelet counts between 20-70,000/ul were randomly allocated to 1 of 4 treatment groups (30, 50, 75 mg eltrombopag or placebo). During Part 1, Compound A was administered in tablet form once daily for 4 weeks. Subjects who achieved platelet counts of >70,000/ul at the end of Part 1 were eligible to enter Part 2, during which subjects initiated therapy with IFN and ribavirin and continued their randomized treatment for a maximum of 12 weeks. A follow-up visit was performed 4 weeks after last dose of study drug. The primary endpoint was defined as an increase in platelet count to 100,000/ul at Week 4.

[1] = range over the Compound A groups (30, 50, 75 mg)

CC1=NN(c2ccc(C)c(C)c2)C(=O)C1=NNc1cccc(-c2cccc(C(=O)O)c2)c1O [Compound A, 3′-{N′-[1-(3,4-Dimethylphenyl)-3-methyl-5-oxo-1,5-dihydropyrazol-4-ylidene]hydrazino}-2′-hydroxybiphenyl-3-carboxylic acid bis-(monoethanolamine)]
Median platelet count at Week 4 (30 mg once daily oral): 136500 µL⁻¹
Median platelet count at Week 4 (50 mg once daily oral): 213500 µL⁻¹
Median platelet count at Week 4 (75 mg once daily oral): 209000 µL⁻¹
platelet counts at Day 28 (all treatment groups (30, 50, 75 mg)): increased platelet counts
subjects completing 12 weeks of antiviral therapy [1]: 36-65%
subjects who completed 12 weeks of antiviral therapy [1]: 5-15 subjects
